Assay [1] has as its system MSSA ATCC 25923. The following applies: for MBC, 50% Human serum: Table S1, MHB with 50% human serum; for MBC, MHB: Table S1, MHB without serum, clear wells plated onto agar, 37°C overnight. Here is the method: MICs against MSSA ATCC 25923 were measured by broth microdilution according to the Clinical and Laboratory Standards Institute (CLSI) M7-A7 methodology ([30]). Briefly, serial 2-fold dilutions of each antibiotic were added into Costar nontreated polystyrene 96-well plates, and each well was inoculated with 50 μl of MSSA in MHB to a final concentration of approximately 5 × 10^5 CFU/ml. […] The dilution representing the MIC and two of the more and less concentrated dilutions were plated out onto Trypticase soy agar plates and enumerated to determine viable CFU/ml ([31]). […]
25923 in MHB media in the presence and absence of Human serum (10% and 50%) in
Corning NonTC microtitre plates (CLS3370)
a The MBCs were determined by plating out the clear wells onto an agar plate and were incubated at
37°C overnight. Each colony represents one viable bacterium. […]

For assay [2], the system named is MSSA ATCC 25923. The assay can be described thus: Time-kill studies (CLSI M26-A). It counts as cell-based, Staphylococcus aureus. As for the experimental part:
Time-kill studies were carried out based on guideline M26-A of the CLSI ([32]), using Costar nontreated polystyrene 96-well plates. […] Culture aliquots were mixed with the charcoal suspension (25 mg/ml) to minimize antibiotic carryover. Viable cell counts were determined after 0, 0.5, 1, 2, 4, 6, 8, and 24 h of incubation at 37°C by plating serially diluted samples onto Trypticase soy agar plates. Bactericidal activity was defined as a ≥3-log10 CFU/ml decrease, in comparison with the baseline, after 24 h of incubation ([32]).

Assay [3] deals with MurG-catalyzed reaction of peptidoglycan biosynthesis. The following applies: relative to MIC against MSSA ATCC 25923; cited from earlier work.
The next assay concerns MSSA and MRSA strains. The following applies: cited from earlier work. An excerpt:
The importance of the membrane depolarization and bactericidal killing in vivo is difficult to quantify due to the limited published pharmacokinetic (PK) studies ([18], [19]), as well as its nonsystemic oral administration in human clinical trials. In addition, MIC determinations can be highly dependent on plate type, serum, and BSA ([18], [41]).

The subject of assay [4] is transglycosylation step of peptidoglycan biosynthesis. The note with it: relative to MIC against MSSA ATCC 25923; cited from earlier work.

≈ marks a conversion by molar mass, not a printed value.

This is an account of results in publication PMC4249368 (Antimicrobial Agents and Chemotherapy, 2014).

On to `CN[C@H](CC(C)C)C(=O)N[C@H]1C(=O)N[C@@H](CC(N)=O)C(=O)N[C@H]2C(=O)N[C@H]3C(=O)N[C@H](C(=O)N[C@H](C(=O)O)c4cc(O)cc(O)c4-c4cc3ccc4O)[C@H](O)c3ccc(c(Cl)c3)Oc3cc2cc(c3O[C@@H]2O[C@H](CO)[C@@H](O)[C@H](O)[C@H]2O[C@H]2C[C@](C)(N)[C@H](O)[C@H](C)O2)Oc2ccc(cc2Cl)[C@H]1O` [vancomycin], for which the “MBC, 10% Human serum” value in the assay with MSSA ATCC 25923 [1] (Table S1, MHB with 10% human serum) was found to be 2 µg/mL (≈ 1.38 µM). Further, in the assay on MSSA ATCC 25923 [1], the “MBC, 50% Human serum” value amounted to 2 µg/mL (≈ 1.38 µM) and the “MBC, MHB” value turned out to be 2 µg/mL (≈ 1.38 µM). Moreover, the “reduction in viable count” value in the assay with MSSA ATCC 25923 [2] (vancomycin at the MBC and above for 8 h) was greater than 3 log10 CFU/ml.
For orientation: MBC means the lowest tested concentration that kills the bacteria rather than only halting them. For ramoplanin, in the assay with MSSA ATCC 25923 [1], the “MBC as multiple of MIC” value was 2 × MIC; the “MBC, 50% Human serum” value worked out at 0.5 µg/mL; the “MBC, MHB” value is listed as 8/2. For the same molecule, the MBC in the assay on MSSA ATCC 25923 [1] (lowest concentration yielding 99.9% reduction in initial colony count after 24 h, MHB) was found to be 4 µg/mL. Besides, the “time to bactericidal activity” value in the assay on MSSA ATCC 25923 [2] (concentrations equal to or above the MBC) is given as “less than 4 h”. Moreover, the “IC50, MurG-catalyzed reaction” value in assay [3] is 20 × MIC. In addition, in the assay with MSSA and MRSA strains, the “effect of 50% human serum on MIC” value is “not affected”. Moreover, in assay [4], the “50% inhibitory concentration (IC50), transglycosylation” value is listed as 0.25 × MIC.
